Consider 77 sequences from the supplement of paper PMC11208160.
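Also: IS621 recombinase and bridge RNA in Escherichia coli cells.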

The data set is described as follows: recombinant barcode read abundance after kanamycin selection (control-corrected) (log10(CPM+1)); higher = more efficient recombination; sequences stand for … in AGTGCAGAGAAAATCGGCCAGTTTTCTCTGCCTGCAGTCCGCATGCCGT…AGATTTATGCAGCGGACTGCCTTTCTCCCAAAGTGATAAACCGGACAGTATCATGGACCGGTTTTCCCGGTAATCCGTATTTGCAAGGTTGGTTTCACT; site = the 11-nt target. In short, it runs like this:
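Pooled oligos, each joining a target to an IS621 bridge RNA target-binding loop, were cloned and co-electroporated with a donor plasmid into E. coli. Selective plates carried chloramphenicol/ampicillin/kanamycin and 0.1 mM IPTG, while chloramphenicol/ampicillin LB agar served as control, with two replicates of each. Recombination efficiency rests on averaged, control-corrected counts per million of barcodes at recombinant junctions, shown as log10(CPM+1).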
Take “CCTTGTTCTTGGGTTCTAACCTGTTGCCT (site TCTTGTTCTAG)”: the “recombinant barcode read abundance (log10)” value was determined as 0.0322.

Consider “CCTTGTTCTTGGGTTCTAACCTGTTGCTA (site CCTTGTTCTTA)”, for which the “recombinant barcode read abundance (log10)” value is 0.113.

Take “CCTTGTTCTTGGGTTCTAACCTGTTGCTA (site TCGTGTTCTTA)”: the “recombinant barcode read abundance (log10)” value was 0.149.

“CGAAATGCTTGGGTTCTAACCTGTTGCCT (site CGAAATGCTAG)”: the “recombinant barcode read abundance (log10)” value was determined as 0.798.

For “CGAAATGCTTGGGTTCTAACCTGTTGCCT (site CGCAATGCTAG)”, the “recombinant barcode read abundance (log10)” value turned out to be 0.0184.

On to “CGAAATGCTTGGGTTCTAACCTGTTGCCT (site CGGAATGCTAG)”, for which the “recombinant barcode read abundance (log10)” value came to 0.035.

For “CGAAATGCTTGGGTTCTAACCTGTTGCCT (site CGTAATGCTAG)”, the “recombinant barcode read abundance (log10)” value amounted to 0.77.

“CGAACGACTTGGGTTCTAACCTGTTGCTT (site CGAACGACTAA)”: the “recombinant barcode read abundance (log10)” value turned out to be 0.0324.

As to “CGAACGACTTGGGTTCTAACCTGTTGCTT (site CGAACGACTAG)”, the “recombinant barcode read abundance (log10)” value is 0.113.

On to “CGAACTACTTGGGTTCTAACCTGTTGCCT (site CGAACTACTAA)”, for which the “recombinant barcode read abundance (log10)” value stood at 0.0404.

As for “CGAACTACTTGGGTTCTAACCTGTTGCCT (site CGAACTACTAC)”, the “recombinant barcode read abundance (log10)” value came to 0.311.

With “CGAACTACTTGGGTTCTAACCTGTTGCCT (site CGAACTACTAG)”, the “recombinant barcode read abundance (log10)” value is 0.0694.

Take “CGAACTACTTGGGTTCTAACCTGTTGCCT (site CGAACTACTAT)”: the “recombinant barcode read abundance (log10)” value is 0.316.

Turning to “CGAATGTCTTGGGTTCTAACCTGTTGCGT (site CGAATGTCTAC)”, the “recombinant barcode read abundance (log10)” value turned out to be 0.991.

As for “CGAATGTCTTGGGTTCTAACCTGTTGCGT (site CGACTGCCTAC)”, the “recombinant barcode read abundance (log10)” value worked out at 0.0251.

For the sequence “CGACAGTCTTGGGTTCTAACCTGTTGCGT (site CGACAGTCTAC)”, the “recombinant barcode read abundance (log10)” value stood at 2.41.

With “CGACAGTCTTGGGTTCTAACCTGTTGCGT (site CGGCAGTCTAC)”, the “recombinant barcode read abundance (log10)” value was determined as 0.153.

“CGACCCTCTTGGGTTCTAACCTGTTGCCT (site AGACCCTCTAG)”: the “recombinant barcode read abundance (log10)” value stood at 0.0358.

As for “CGACCCTCTTGGGTTCTAACCTGTTGCCT (site CGACCCTCTAG)”, the “recombinant barcode read abundance (log10)” value stood at 1.74.

“CGACCCTCTTGGGTTCTAACCTGTTGCCT (site GGACCCTCTAG)”: the “recombinant barcode read abundance (log10)” value amounted to 0.17.

With “CGACCCTCTTGGGTTCTAACCTGTTGCCT (site TGACCCTCTAG)”, the “recombinant barcode read abundance (log10)” value was determined as 0.381.

For “CGACGAGCTTGGGTTCTAACCTGTTGCGG (site CCACGAGCTCC)”, the “recombinant barcode read abundance (log10)” value amounted to 0.352.

On to “CGACGAGCTTGGGTTCTAACCTGTTGCGG (site CGACGAGCTCC)”, for which the “recombinant barcode read abundance (log10)” value was 1.22.

As to “CGAGATCCTTGGGTTCTAACCTGTTGCAT (site CGAGATCCTAT)”, the “recombinant barcode read abundance (log10)” value was 1.29.

As for “CGAGATCCTTGGGTTCTAACCTGTTGCAT (site CGAGGTACTAT)”, the “recombinant barcode read abundance (log10)” value came to 0.

Regarding “CGAGATCCTTGGGTTCTAACCTGTTGCCT (site CGACATCCTAG)”, the “recombinant barcode read abundance (log10)” value turned out to be 0.214.

With “CGAGATCCTTGGGTTCTAACCTGTTGCCT (site CGAGATCCTAG)”, the “recombinant barcode read abundance (log10)” value was 0.678.

For “CGAGGTACTTGGGTTCTAACCTGTTGCAT (site CGAGATCCTAT)”, the “recombinant barcode read abundance (log10)” value was 0.0262.

As for “CGAGGTACTTGGGTTCTAACCTGTTGCAT (site CGAGGTACTAT)”, the “recombinant barcode read abundance (log10)” value stood at 1.87.

Take “CGATACACTTGGGTTCTAACCTGTTGCCG (site CGATACACTCG)”: the “recombinant barcode read abundance (log10)” value is 0.571.

With “CGATACACTTGGGTTCTAACCTGTTGCCG (site CGATCCACTCA)”, the “recombinant barcode read abundance (log10)” value came out at 0.052.

On to “CGATCACCTTGGGTTCTAACCTGTTGCCT (site CGATCACCTAG)”, for which the “recombinant barcode read abundance (log10)” value was 0.105.

With “CGATCACCTTGGGTTCTAACCTGTTGCCT (site TTCGGCTCTTA)”, the “recombinant barcode read abundance (log10)” value is 0.665.

On to “CGATCCACTTGGGTTCTAACCTGTTGCTG (site CGATACACTCG)”, for which the “recombinant barcode read abundance (log10)” value came to 0.16.

Turning to “CGATCCACTTGGGTTCTAACCTGTTGCTG (site CGATCCACTCA)”, the “recombinant barcode read abundance (log10)” value was found to be 0.483.

As for “CGATGGACTTGGGTTCTAACCTGTTGCTG (site AAGCTTGCTAG)”, the “recombinant barcode read abundance (log10)” value amounted to 0.0171.

Regarding “CGATGGACTTGGGTTCTAACCTGTTGCTG (site CGATGGACTCA)”, the “recombinant barcode read abundance (log10)” value stood at 1.81.

As for “CGATTTCCTTGGGTTCTAACCTGTTGCCT (site CGATTTCCTAG)”, the “recombinant barcode read abundance (log10)” value was 0.0837.

Regarding “CGATTTCCTTGGGTTCTAACCTGTTGCCT (site CGATTTCCTAT)”, the “recombinant barcode read abundance (log10)” value worked out at 0.102.

With “CGCAATGCTTGGGTTCTAACCTGTTGCCT (site CGAAATGCTAG)”, the “recombinant barcode read abundance (log10)” value was found to be 0.125.

On to “CGCAATGCTTGGGTTCTAACCTGTTGCCT (site CGCAATGCTAG)”, for which the “recombinant barcode read abundance (log10)” value is 0.07.

In the case of “CGCAATGCTTGGGTTCTAACCTGTTGCCT (site CGGAATGCTAG)”, the “recombinant barcode read abundance (log10)” value worked out at 0.469.

On to “CGCAATGCTTGGGTTCTAACCTGTTGCCT (site CGTAATGCTAG)”, for which the “recombinant barcode read abundance (log10)” value was 0.322.

In the case of “CGCAGCACTTGGGTTCTAACCTGTTGCCT (site AGCAGCACTAG)”, the “recombinant barcode read abundance (log10)” value came out at 0.067.

In the case of “CGCAGCACTTGGGTTCTAACCTGTTGCCT (site CGCAGCACTAG)”, the “recombinant barcode read abundance (log10)” value amounted to 0.63.

On to “CGCCAGCCTTGGGTTCTAACCTGTTGCCT (site CGCCAGCCTAG)”, for which the “recombinant barcode read abundance (log10)” value came to 0.0113.

In the case of “CGCCAGCCTTGGGTTCTAACCTGTTGCCT (site CGCCTGCCTAG)”, the “recombinant barcode read abundance (log10)” value was found to be 0.

Regarding “CGCCCTTCTTGGGTTCTAACCTGTTGCCT (site CGCCCTTCTAG)”, the “recombinant barcode read abundance (log10)” value came out at 0.0296.

As to “CGCCCTTCTTGGGTTCTAACCTGTTGCCT (site TAAGGGACTTA)”, the “recombinant barcode read abundance (log10)” value is 0.0823.

Take “CGCCGTACTTGGGTTCTAACCTGTTGCCT (site CGACGTACTAG)”: the “recombinant barcode read abundance (log10)” value turned out to be 0.264.

Take “CGCCGTACTTGGGTTCTAACCTGTTGCCT (site CGCCGTACTAG)”: the “recombinant barcode read abundance (log10)” value was found to be 0.405.

For the sequence “CGCCGTACTTGGGTTCTAACCTGTTGCCT (site CGGCGTACTAG)”, the “recombinant barcode read abundance (log10)” value amounted to 0.349.

Take “CGCCGTACTTGGGTTCTAACCTGTTGCCT (site CGTCGTACTAG)”: the “recombinant barcode read abundance (log10)” value was determined as 0.0659.

With “CGCCTCACTTGGGTTCTAACCTGTTGCCT (site CGCCTCACTAG)”, the “recombinant barcode read abundance (log10)” value is 0.0456.

In the case of “CGCCTCACTTGGGTTCTAACCTGTTGCCT (site CGCCTCCCTAG)”, the “recombinant barcode read abundance (log10)” value was determined as 0.152.

Regarding “CGCCTCACTTGGGTTCTAACCTGTTGCCT (site CGCCTCGCTAG)”, the “recombinant barcode read abundance (log10)” value is 0.166.

As to “CGCCTCACTTGGGTTCTAACCTGTTGCCT (site CGCCTCTCTAG)”, the “recombinant barcode read abundance (log10)” value amounted to 0.0333.

Consider “CGCGAGTCTTGGGTTCTAACCTGTTGCTG (site CGCGAGTCTCA)”, for which the “recombinant barcode read abundance (log10)” value amounted to 0.254.

Turning to “CGCGAGTCTTGGGTTCTAACCTGTTGCTG (site TAATTTGCTAG)”, the “recombinant barcode read abundance (log10)” value amounted to 0.142.

Turning to “CGCGCCACTTGGGTTCTAACCTGTTGCCT (site CGCGCCACTAG)”, the “recombinant barcode read abundance (log10)” value came to 0.383.

On to “CGCGCCACTTGGGTTCTAACCTGTTGCCT (site TAGCAGTCTGC)”, for which the “recombinant barcode read abundance (log10)” value was found to be 0.188.

Regarding “CGCGCCTCTTGGGTTCTAACCTGTTGCCG (site CGCGCCTCTCG)”, the “recombinant barcode read abundance (log10)” value was found to be 0.0377.

Turning to “CGCGCCTCTTGGGTTCTAACCTGTTGCCG (site GGCCCCTCTCG)”, the “recombinant barcode read abundance (log10)” value came to 0.362.

On to “CGCGGGGCTTGGGTTCTAACCTGTTGCCT (site CGCGCGGCTAG)”, for which the “recombinant barcode read abundance (log10)” value was determined as 0.392.

For the sequence “CGCGGGGCTTGGGTTCTAACCTGTTGCCT (site CGCGGGGCTAG)”, the “recombinant barcode read abundance (log10)” value was found to be 0.662.

With “CGCGGTCCTTGGGTTCTAACCTGTTGCCT (site CGCGATCCTAG)”, the “recombinant barcode read abundance (log10)” value came out at 0.305.

Take “CGCGGTCCTTGGGTTCTAACCTGTTGCCT (site CGCGCTCCTAG)”: the “recombinant barcode read abundance (log10)” value was 0.109.

Take “CGCGGTCCTTGGGTTCTAACCTGTTGCCT (site CGCGGTCCTAG)”: the “recombinant barcode read abundance (log10)” value is 0.0165.

Regarding “CGCGGTCCTTGGGTTCTAACCTGTTGCCT (site CGCGTTCCTAG)”, the “recombinant barcode read abundance (log10)” value was 0.084.

As to “CGCTAGACTTGGGTTCTAACCTGTTGCCT (site CGCTAGACTAG)”, the “recombinant barcode read abundance (log10)” value was determined as 0.13.

Take “CGCTAGACTTGGGTTCTAACCTGTTGCCT (site CGCTCGACTAG)”: the “recombinant barcode read abundance (log10)” value is 0.0159.

For “CGCTAGACTTGGGTTCTAACCTGTTGCCT (site CGCTGGACTAG)”, the “recombinant barcode read abundance (log10)” value was 0.0628.

Turning to “CGCTAGACTTGGGTTCTAACCTGTTGCCT (site CGCTTGACTAG)”, the “recombinant barcode read abundance (log10)” value is 0.052.

Regarding “CGCTAGTCTTGGGTTCTAACCTGTTGCCT (site CGCTAGTCTAG)”, the “recombinant barcode read abundance (log10)” value is 0.451.

Regarding “CGCTAGTCTTGGGTTCTAACCTGTTGCCT (site CGCTCGTCTAG)”, the “recombinant barcode read abundance (log10)” value worked out at 0.22.

Regarding “CGCTAGTCTTGGGTTCTAACCTGTTGCCT (site CGCTGGTCTAG)”, the “recombinant barcode read abundance (log10)” value worked out at 0.285.

Consider “CGCTAGTCTTGGGTTCTAACCTGTTGCCT (site CGCTTGTCTAG)”, for which the “recombinant barcode read abundance (log10)” value amounted to 0.0462.
